Data: the supplement of paper PMC4862054
Values joined by “and” are separate entries in the source; they are usually repeats but may differ in a detail not shown here. Identical values can stand only once.

Assays:
Conditions in all cases: incubation time: 72 h
MFM-223 [1] = test: drug sensitivity score (DSS), CellTox Green (DSS (AUC-based score)); higher = stronger drug effect (viability inhibition or cytotoxicity); extreme values may be limits of the assay
Method in brief: (§1)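 Using 20 µl of cell suspension per well, breast cancer cell lines were seeded into 384-well plates pre-loaded with compound at 5 concentrations in 10-fold steps across a compound-specific 10,000-fold range. Incubation lasted 72 h, after which CellTox Green fluorescence at 485/520 nm and then CellTiter-Glo luminescence, following 10 min at room temperature, were recorded. Each plate was normalised to 0.1 % DMSO and a positive kill control before the drug sensitivity score was derived from the area under the fitted dose-response curve.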

CAL-120 [2] = test: as above
Method in brief: as §1

CAL-148 = test: normalised viability (% of control), CellTiter-Blue; higher = more viable cells (about 100 = DMSO control)
Protocol: (§2)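 DSRT, CellTiter-Blue viability, 72 h incubation. Signal is normalised to DMSO and benzethonium chloride controls. Value is the normalised response at dose 3.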

MDA-MB-436 = test: as above
Protocol: as §2

MDA-MB-231 = test: as above
Protocol: as §2

BT-549 = test: as above
Protocol: as §2

HDQ-P1 = test: as above
Protocol: as §2

MFM-223 [3] = test: as above
Protocol: as §2

CAL-85-1 = test: as above
Protocol: as §2

SK-BR-3 = test: as above
Protocol: as §2

HCC1937 = test: as above
Protocol: as §2

CAL-51 = test: as above
Protocol: as §2

HCC1143 = test: as above
Protocol: as §2

Hs578T = test: as above
Protocol: as §2

HCC1599 = test: as above
Protocol: as §2

DU-4475 = test: as above
Protocol: as §2

CAL-120 [4] = test: as above
Protocol: as §2

MDA-MB-453 = test: as above
Protocol: as §2

MDA-MB-468 = test: as above
Protocol: as §2

BT-474 = test: as above
Protocol: as §2

Compound | drug sensitivity score (MFM-223 [1]) | drug sensitivity score (CAL-120 [2]) | normalised viability (CAL-148; 10 nM) | normalised viability (MDA-MB-436; 100 nM) | normalised viability (MDA-MB-231; 100 nM) | normalised viability (BT-549; 100 nM) | normalised viability (HDQ-P1; 10 nM) | normalised viability (MFM-223 [3]; 100 nM) | normalised viability (CAL-85-1; 10 nM) | normalised viability (SK-BR-3; 100 nM) | normalised viability (HCC1937; 100 nM) | normalised viability (CAL-51; 10 nM) | normalised viability (HCC1143; 100 nM) | normalised viability (Hs578T; 100 nM) | normalised viability (HCC1599; 100 nM) | normalised viability (DU-4475; 10 nM) | normalised viability (CAL-120 [4]; 100 nM) | normalised viability (MDA-MB-453; 10 nM) | normalised viability (MDA-MB-468; 100 nM) | normalised viability (BT-474; 100 nM) | further results
CC(=O)[C@]1(O)Cc2c(O)c3c(c(O)c2[C@@H](O[C@H]2C[C@H](N)[C@H](O)[C@H](C)O2)C1)C(=O)c1ccccc1C3=O [Idarubicin] | 1.56 | 0 | – | – | – | – | – | – | – | – | – | – | – | – | – | – | – | – | – | – | normalised viability (CAL-148; 1 nM): 93.9%; normalised viability (MDA-MB-436; 10 nM): 106%; normalised viability (MDA-MB-231; 10 nM): 102%; normalised viability (BT-549; 10 nM): 82.6%; normalised viability (HDQ-P1; 1 nM): 113%; normalised viability (MFM-223 [3]; 10 nM): 103%; normalised viability (CAL-85-1; 1 nM): 92.3%; normalised viability (SK-BR-3; 10 nM): 67%; normalised viability (HCC1937; 10 nM): 47.2%; normalised viability (CAL-51; 1 nM): 105%; normalised viability (HCC1143; 10 nM): 103%; normalised viability (Hs578T; 10 nM): 72.8%; normalised viability (HCC1599; 10 nM): 97.2%; normalised viability (DU-4475; 1 nM): 98%; normalised viability (CAL-120 [4]; 10 nM): 70.1%; normalised viability (MDA-MB-453; 1 nM): 98%; normalised viability (MDA-MB-468; 10 nM): 73.3%; normalised viability (BT-474; 10 nM): 113%
O=C(CCCCCCC(=O)Nc1ccccc1)NO [Vorinostat] | 0 | 2.58 | 88.3% and 92.3% | 107% and 95.4% | 97.9% and 86.1% | 106% and 90% | 113% and 89.2% | 103% and 97.1% | 109% and 96.3% | 59.4% and 81.4% | 98.6% and 84.2% | 107% and 93.5% | 94.1% and 114% | 74.4% and 83.6% | 101% and 111% | 109% | 79.2% and 93.3% | 115% and 97.7% | 104% and 97.3% | 87.5% and 93.6% | –
CC(C)(C)NC(=O)[C@H]1CC[C@H]2[C@@H]3CC[C@H]4NC(=O)C=C[C@]4(C)[C@H]3CC[C@]12C [Finasteride] | 3.14 | 0 | 93.2% | 110% | 94.2% | 107% | 106% | 95.1% | 97% | 104% | 91% | 109% | 107% | 105% | 106% | 107% | 108% | 103% | 103% | 125% | –
CC(C)C[C@H](NC(=O)[C@@H](COC(C)(C)C)NC(=O)[C@H](Cc1ccc(O)cc1)NC(=O)[C@H](CO)NC(=O)[C@H](Cc1c[nH]c2ccccc12)NC(=O)[C@H](Cc1cnc[nH]1)NC(=O)[C@@H]1CCC(=O)N1)C(=O)N[C@@H](CCCNC(=N)N)C(=O)N1CCC[C@H]1C(=O)NNC(N)=O [Goserelin] | – | 0 | 101% | 102% | 91.8% | 102% | 117% | 91.3% | 102% | 110% | 104% | 113% | 87.3% | 113% | 94.4% | 96.2% | 107% | 102% | 101% | 115% | –
CCNC(=O)c1noc(-c2cc(C(C)C)c(O)cc2O)c1-c1ccc(CN2CCOCC2)cc1 [NVP-AUY922] | 0 | 0.256 | – | – | – | – | – | – | – | – | – | – | – | – | – | – | – | – | – | – | normalised viability (CAL-148; 1 nM): 103%; normalised viability (MDA-MB-436; 10 nM): 58.5%; normalised viability (MDA-MB-231; 10 nM): 56.5%; normalised viability (BT-549; 10 nM): 42.2%; normalised viability (HDQ-P1; 1 nM): 132%; normalised viability (MFM-223 [3]; 10 nM): 41.1%; normalised viability (CAL-85-1; 1 nM): 96%; normalised viability (SK-BR-3; 10 nM): 34.9%; normalised viability (HCC1937; 10 nM): 37.8%; normalised viability (CAL-51; 1 nM): 102%; normalised viability (HCC1143; 10 nM): 100%; normalised viability (Hs578T; 10 nM): 37.3%; normalised viability (HCC1599; 10 nM): 112%; normalised viability (DU-4475; 1 nM): 115%; normalised viability (CAL-120 [4]; 10 nM): 46.6%; normalised viability (MDA-MB-453; 1 nM): 119%; normalised viability (MDA-MB-468; 10 nM): 51.6%; normalised viability (BT-474; 10 nM): 86.1%
CN(Cc1cnc2nc(N)nc(N)c2n1)c1ccc(C(=O)N[C@@H](CCC(=O)O)C(=O)O)cc1 [Methotrexate] | 0 | 0 | 105% | 80.7% | 85.9% | 87.2% | 95.7% | 98.2% | 104% | 49% | 96.2% | 107% | 69.3% | 78.6% | 106% | 122% | 50.4% | 122% | 46.3% | 124% | –
CC[C@H](CO)Nc1nc(NCc2ccccc2)c2ncn(C(C)C)c2n1 [Roscovitine] | – | – | 88.8% | 96.5% | 88.5% | 98.5% | 120% | 89% | 101% | 73.1% | 97.3% | 104% | 83.4% | 91.1% | 116% | 104% | 82.7% | 106% | 108% | 94.9% | –
COc1c2occc2cc2ccc(=O)oc12 [Methoxsalen] | – | – | 99.5% | 103% | 100% | 109% | 99.3% | 92.9% | 100% | 98.6% | 104% | 105% | 106% | 102% | 104% | 95.5% | 106% | 95.2% | 104% | 115% | –
CC(O)(CS(=O)(=O)c1ccc(F)cc1)C(=O)Nc1ccc(C#N)c(C(F)(F)F)c1 (stereo not given) [Bicalutamide] | 0 | 0 | 109% | 98.7% | 105% | 84.5% | 121% | 87% | 110% | 94.1% | 83% | 105% | 99.8% | 93.6% | 83.7% | 103% | 97.2% | 101% | 94.6% | 115% | –
CCNC(=O)CCC/C=C\C[C@@H]1[C@@H](/C=C/[C@@H](O)CCc2ccccc2)[C@H](O)C[C@@H]1O [Bimatoprost] | 0 | 0 | – | – | – | – | – | – | – | – | – | – | – | – | – | – | – | – | – | – | normalised viability (CAL-148; 5.5 nM): 90.1%; normalised viability (MDA-MB-436; 55 nM): 115%; normalised viability (MDA-MB-231; 55 nM): 96.8%; normalised viability (BT-549; 55 nM): 98.7%; normalised viability (HDQ-P1; 5.5 nM): 99.7%; normalised viability (MFM-223 [3]; 55 nM): 108%; normalised viability (CAL-85-1; 5.5 nM): 104%; normalised viability (SK-BR-3; 55 nM): 82.1%; normalised viability (HCC1937; 55 nM): 102%; normalised viability (CAL-51; 5.5 nM): 113%; normalised viability (HCC1143; 55 nM): 100%; normalised viability (Hs578T; 55 nM): 80.7%; normalised viability (HCC1599; 55 nM): 123%; normalised viability (DU-4475; 5.5 nM): 120%; normalised viability (CAL-120 [4]; 55 nM): 95.4%; normalised viability (MDA-MB-453; 5.5 nM): 105%; normalised viability (MDA-MB-468; 55 nM): 106%; normalised viability (BT-474; 55 nM): 126%
